Reference: US8628961B2, “Small molecule antagonists of phosphatidylinositol-3,4,5-triphosphate (PIP3) and uses thereof” (Tufts University, priority 2010, dated 2014)

Experiments:
Akt PH domain = Akt PH domain (Homo sapiens (Human), UniProt P31749); experiment: PH domain translocation assay (GFP fusion, plasma membrane); format: cell-based; conditions: PDGF stimulation
Protocol: Cells were transfected with the corresponding GFP-fusion vectors, serum starved overnight, and incubated with 100 μM PITs or PIT-1 is for 2 hr, followed by stimulation with 100 ng/ml PDGF or 250 ng/ml PMA for 5 min. The translocation was analyzed using fluorescent microscope and was quantitated by counting the number of cells with translocated PH domains in five random fields.
To begin characterizing cellular activity of PITs, a PH domain translocation assay was performed, measuring PIP3-induced association of GFP-fused PH domains with the plasma membrane. […] Varnai P et al. (1999) J Biol Chem 274:10983-9. Several PH-domain-containing proteins, which are known to bind PIP3 specifically and efficiently, were examined. […] Oikawa T et al. (2004) Nat Cell Biol 6:420-6.

[1] = test system: SV40-transformed mouse adult lung fibroblasts; experiment: Viability of Akt1-expressing versus Akt1-3 triple knockout fibroblasts; format: cell-based
From the text: Shaughnessy J D (2008) Nature 454:172-3; Weinstein I G (2002) Science 297:63-4. Therefore, the possibility that PIT-1 may cause preferential cell death in the cells containing elevated PIP3 levels was examined. […] Li D M et al. (1998) Proc Natl Acad Sci USA 95:15406-11. […] Neshat M S et al. (2001) Proc Natl Acad Sci USA 98:10314-9.

[2] = Cell death in combination with inhibitors of mitochondrial respiration and ATP synthase; format: cell-based
From the text: Elstrom R L et al. (2004) Cancer Res 64:3892-9.

human cancer cells = experiment: Cancer cell migration, transwell migration and wound closure models; format: cell-based; conditions: model not specified
Protocol: Two models of cell migration were used, a transwell migration model and a wound closure model. Migration of cancer and endothelial cells was evaluated using 24-transwell Boyden chamber (Costar, Bedford, Mass.) with a polystyrene membrane (6.5 mm diameter, 10 μm thickness, and 8 μm pore size). Cells were suspended in serum-free media and seeded in the upper compartment of each well (2×10^4 cells/well) in the presence or absence of different compounds at the indicated concentrations. The lower compartment contained 600 μl of serum-free culture media supplemented with growth factors. After an 8-hr incubation at 37° C., cells were fixed and stained with 0.1% crystal violet. Non-migrating cells on the upper surface of the filter were removed, and the stained cells that migrated to the lower side were photographed using a phase-contrast microscope (Nikon, Japan) in five random fields. The cells were lysed with 10% acetic acid, and colorimetric determination was made at 595 nm using Wallac Victor 3 plate reader.
Cancer or endothelial cells were seeded into fibronectin-coated 96-well plates (2×10^4 cells/well). After reaching confluence, cell monolayers were scratched with a pipette tip to obtain a “wound”. The media and dislodged cells were aspirated and replaced by fresh serum-free media in the presence of growth factors, with or without compounds at different concentrations. After an 8-hr incubation at 37° C., cells were photographed using a phase-contrast microscope in five random fields. The width of wounded cell monolayers in images was measured and the inhibition rates of migration were calculated as inhibition rate=[1−(compound-treated group/control group)]×100%, and IC50 value was determined using Origin6 software (MicroCal, LLC, Northampton, Mass.).

U87MG cells = experiment: Combination with Akt kinase inhibitors in U87MG cells (western blot, ATP assay); format: cell-based, human
Protocol: U87MG cells were treated with 100 μM PIT-1, or 10 μM Akt inhibitor VIII (Calbiochem) or Akt inhibitor (Calbiochem), or 100 μM PIT-1 together with 10 μM Akt inhibitor VIII or Akt inhibitor, for 12 hr and then phosphorylation events were evaluated by western blot.

Akt PH domain, sequence (P31749 5-108): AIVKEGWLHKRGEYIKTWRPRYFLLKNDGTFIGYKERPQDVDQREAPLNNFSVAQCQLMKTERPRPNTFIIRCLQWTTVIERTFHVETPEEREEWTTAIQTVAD

O=c1[nH]c2ccccc2n1C1CCN(Cc2ccc(-c3nc4cc5[nH]cnc5cc4nc3-c3ccccc3)cc2)CC1 [Akt inhibitor VIII]
plasma membrane translocation of Akt PH domain (Akt PH domain): Neither Akt inhibitor X nor allosteric inhibitor VIII blocked membrane translocation | loss of viability in Akt1-expressing versus Akt1-3 triple knockout fibroblasts [1]: comparable | cell death with oligomycin, antimycin A, rotenone [2]: synergized | cancer cell migration (human cancer cells): lack thereof | combination of Akt inhibitors VIII and X (U87MG cells): no additive effect
